The target in one experiment is T1, β-catenin:MDM2 complex (Homo sapiens, UniProt P35222+Q00987).
T1 construct: 6×His-yBBr-TEV (N); 6×His-TEV (N, cleaved yes); made in house; host or cells: E. coli BL21 (DE3) pLysS (beta-catenin); E. coli BL21 (DE3) (MDM2)
Put plainly: FP analysis of the β-catenin:MDM2 complex. Type of experiment: biochemical. The conditions noted are these: read-out: EC50 of cooperative interaction between MDM2 and the Armadillo domain of β-catenin.

The next experiment deals with T2, β-catenin:MDM4 complex (Homo sapiens, UniProt O15151+P35222, C17S).
T2 construct: 6×His-yBBr-TEV (N); 6×His-yBBr-3C (N, cleaved yes); made in house; host or cells: E. coli BL21 (DE3) pLysS (beta-catenin); E. coli BL21 (DE3) (MDM4)
T2 sequence (P35222 134-665): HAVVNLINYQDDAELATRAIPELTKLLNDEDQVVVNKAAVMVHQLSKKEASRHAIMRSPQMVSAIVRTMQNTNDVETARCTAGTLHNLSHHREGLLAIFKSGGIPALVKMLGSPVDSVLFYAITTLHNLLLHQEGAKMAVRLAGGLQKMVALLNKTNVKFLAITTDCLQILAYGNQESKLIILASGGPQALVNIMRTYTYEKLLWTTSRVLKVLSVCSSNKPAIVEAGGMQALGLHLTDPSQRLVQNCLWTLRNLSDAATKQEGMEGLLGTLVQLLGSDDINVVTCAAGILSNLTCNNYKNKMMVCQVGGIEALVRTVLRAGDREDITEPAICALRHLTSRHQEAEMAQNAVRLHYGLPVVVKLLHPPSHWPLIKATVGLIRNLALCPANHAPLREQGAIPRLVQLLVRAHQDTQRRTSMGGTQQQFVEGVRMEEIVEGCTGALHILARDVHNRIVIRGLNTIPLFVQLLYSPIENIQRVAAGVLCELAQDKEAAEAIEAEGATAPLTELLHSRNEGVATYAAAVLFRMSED
T2 sequence (O15151 14-111 C17S): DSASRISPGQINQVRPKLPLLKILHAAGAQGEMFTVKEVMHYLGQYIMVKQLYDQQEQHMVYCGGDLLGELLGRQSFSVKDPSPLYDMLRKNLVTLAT
Put plainly: FP analysis of the β-catenin:MDM4 complex. Type of experiment: biochemical. The conditions noted are these: direct FP assay.

For the next experiment, the target named is T3, MDM4 (Homo sapiens, UniProt O15151, C17S).
T3 construct: 6×His-yBBr-3C (N, cleaved yes); made in house; host or cells: E. coli BL21 (DE3)
T3 sequence (O15151 14-111 C17S): T2 sequence (O15151 14-111 C17S)
Put plainly: Direct FP ternary complex formation, fluorescent MDM4 and beta-catenin. The conditions noted are these: fluorescent p53-binding domain of MDM4. Format: biochemical.

The next experiment deals with T4, MDM2 and β-catenin (Homo sapiens, UniProt P35222+Q00987).
T4 construct: 6×His-TEV (N, cleaved yes); 6×His-yBBr-TEV (N); made in house; host or cells: E. coli BL21 (DE3) (MDM2); E. coli BL21 (DE3) pLysS (β-catenin)
Put plainly: Direct FP ternary complex formation, fluorescent MDM2 and beta-catenin. The conditions noted are these: fluorescent p53-binding domain of MDM2. Format: biochemical.

In the next experiment the target is T5, VHL-ELOBC (Homo sapiens, UniProt P40337).
T5 construct: VHL (Uniprot ID: P40337, residues 54-213) with an N-terminal 6×His-TEV tag; 6×His-TEV (N); made in house; host or cells: E. coli BL21 (DE3)
Put plainly: Naive Library Presenter Screening (phage, NGS), VHL-ELOBC. Format: binding. The following applies: VHL target concentration 1000 nM.

In a further experiment the target is T6, beta-catenin (Homo sapiens, UniProt P35222).
T6 construct: 10 nM full-length β-catenin (Uniprot ID P35222); 6×His-thrombin-T7-TEV (N); made in house; host or cells: E. coli BL21 (DE3) pLysS
Put plainly: KD (μM, SPR).

Numbered stars: 1 amine (or outer) side, 2 acyl side, 3 side chain; on linkers, the order of the positions; unused ones are H or OH. Bridge positions count the residues as written; N and C are the ends. Peptide text beside a SMILES is read from it. Phenylene(1,4-NHCOCH2)2 = O=C(C[*:1])Nc1ccc(NC(=O)C[*:2])cc1

As a reminder, the EC50 is the concentration giving half of the maximal effect. As usually defined, the Kd is the concentration at which binding is half-saturated. Read a high Kd as lower affinity.

T6 sequence (P35222 2-781 limits assumed): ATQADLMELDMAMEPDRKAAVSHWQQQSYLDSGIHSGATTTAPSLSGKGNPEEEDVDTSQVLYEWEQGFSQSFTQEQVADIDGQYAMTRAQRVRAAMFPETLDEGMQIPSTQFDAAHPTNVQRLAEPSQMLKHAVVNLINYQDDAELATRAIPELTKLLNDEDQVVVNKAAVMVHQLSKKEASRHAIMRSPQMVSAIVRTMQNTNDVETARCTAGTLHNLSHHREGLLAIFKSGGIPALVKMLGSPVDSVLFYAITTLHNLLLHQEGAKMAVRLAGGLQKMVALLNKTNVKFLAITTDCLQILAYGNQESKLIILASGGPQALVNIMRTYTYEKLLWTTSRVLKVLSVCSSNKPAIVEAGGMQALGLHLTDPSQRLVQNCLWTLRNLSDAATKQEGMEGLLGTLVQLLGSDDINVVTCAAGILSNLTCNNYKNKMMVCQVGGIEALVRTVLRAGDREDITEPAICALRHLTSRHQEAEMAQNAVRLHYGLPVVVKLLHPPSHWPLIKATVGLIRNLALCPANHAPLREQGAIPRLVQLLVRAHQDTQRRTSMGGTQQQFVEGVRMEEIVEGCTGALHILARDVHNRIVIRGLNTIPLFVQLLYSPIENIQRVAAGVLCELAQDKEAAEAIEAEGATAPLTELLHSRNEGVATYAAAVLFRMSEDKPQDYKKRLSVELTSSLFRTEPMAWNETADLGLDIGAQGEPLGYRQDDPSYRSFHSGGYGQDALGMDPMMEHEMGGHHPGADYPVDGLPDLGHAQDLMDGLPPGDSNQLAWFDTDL
T1 sequence (Q00987 17-111 limits assumed, one chain of several): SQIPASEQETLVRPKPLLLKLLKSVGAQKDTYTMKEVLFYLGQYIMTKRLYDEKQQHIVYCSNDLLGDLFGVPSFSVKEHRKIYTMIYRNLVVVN
T4 sequence (Q00987 17-111 limits assumed, one chain of several): as above
T5 sequence (P40337 54-213): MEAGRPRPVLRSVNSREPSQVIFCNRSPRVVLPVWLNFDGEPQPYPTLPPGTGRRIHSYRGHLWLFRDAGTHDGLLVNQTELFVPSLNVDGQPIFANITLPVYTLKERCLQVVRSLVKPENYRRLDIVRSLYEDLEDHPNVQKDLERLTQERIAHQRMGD
T5 sequence (Q15370 1-104 partner limits assumed): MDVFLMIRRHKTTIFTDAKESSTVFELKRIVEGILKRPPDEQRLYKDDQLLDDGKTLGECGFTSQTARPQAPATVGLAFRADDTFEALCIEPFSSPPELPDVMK
T5 sequence (Q15369 17-112 partner limits assumed): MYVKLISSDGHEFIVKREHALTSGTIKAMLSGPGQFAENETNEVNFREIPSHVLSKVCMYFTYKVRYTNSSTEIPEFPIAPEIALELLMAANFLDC

Turning to `CC[C@H](C)[C@H](NC(=O)[C@H](C)NC(=O)[C@H](CCC(N)=O)NC(=O)[C@H](CCC(N)=O)NC(=O)[C@H](CCC(=O)O)NC(=O)[C@H](CCSC)NC(=O)[C@@H]1CCCN1C(C)=O)C(=O)N[C@H]1CSCC(=O)Nc2ccc(cc2)NC(=O)CSC[C@@H](C(=O)N[C@@H](CC(C)C)C(=O)N[C@@H](C)C(=O)N[C@@H](CC(=O)O)C(=O)N[C@@H](CC(=O)O)C(=O)N[C@@H](Cc2c[nH]c3ccccc23)C(=O)N[C@H](C(N)=O)[C@@H](C)O)NC(=O)[C@H](CCSC)NC(=O)[C@H](Cc2c[nH]c3ccccc23)NC(=O)[C@H](C)NC(=O)[C@H](C)NC(=O)[C@H](CCC(N)=O)NC(=O)[C@H](Cc2ccccc2)NC1=O` [Helicon H329] (Ac-PMEQQAICFQAAWMCLADDWT-NH2; linker 8-15 via Phenylene(1,4-NHCOCH2)2), at β-catenin:MDM2 complex, the EC50 fell in the range of 10 to 100 nM. For the same compound, the “promotion of interaction between MDM4 and β-catenin” value (from here on “promotion”) at β-catenin:MDM4 complex was “not between MDM4 and β-catenin”.
Turning to `CC(=O)N1CCC[C@H]1C(=O)N[C@@H](CC(N)=O)C(=O)N[C@@H](CC(C)C)C(=O)N[C@H](C(=O)NCC(=O)N[C@@H](C)C(=O)N[C@@H](CC(=O)O)C(=O)N[C@H]1CSCC(=O)Nc2ccc(cc2)NC(=O)CSC[C@@H](C(=O)N[C@@H](CC(C)C)C(=O)N[C@@H](CCC(N)=O)C(=O)N[C@@H](Cc2ccccc2)C(=O)N[C@@H](CC(C)C)C(=O)N[C@@H](Cc2c[nH]c3ccccc23)C(=O)N[C@@H](CC(=O)O)C(N)=O)NC(=O)[C@H](CCC(N)=O)NC(=O)[C@H](Cc2c[nH]c3ccccc23)NC(=O)[C@H](C)NC(=O)[C@H](C)NC(=O)[C@@H]2CCCN2C(=O)[C@H](Cc2ccccc2)NC1=O)[C@@H](C)O` [Helicon H334], the “ternary complex formation with MDM4” value on MDM4 was “did not occur”. In addition, on β-catenin:MDM2 complex, the half-maximal effective concentration (EC50) lay in the range of 10 to 100 nM. Besides, the “ternary complex formation, MDM2 and β-catenin” value on MDM2 and β-catenin is given as “could promote ternary complex formation”. Moreover, the “promotion” value on β-catenin:MDM4 complex was “not between MDM4 and β-catenin”.
Consider `CC(=O)N1CCC[C@H]1C(=O)N[C@@H](Cc1c[nH]c2ccccc12)C(=O)N[C@@H](CCCCN)C(=O)N[C@@H](Cc1ccc(O)cc1)C(=O)N[C@@H](CCC(=O)O)C(=O)N[C@@H](CCC(N)=O)C(=O)N[C@H](C(=O)N[C@H]1CSCC(=O)Nc2ccc(cc2)NC(=O)CSC[C@@H](C(=O)N[C@@H](CC(C)C)C(=O)N[C@@H](CO)C(=O)N[C@@H](CC(=O)O)C(=O)N[C@@H](CC(=O)O)C(=O)N[C@@H](Cc2c[nH]c3ccccc23)C(=O)N[C@@H](CC(=O)O)C(N)=O)NC(=O)[C@H](CCC(N)=O)NC(=O)[C@H](Cc2c[nH]c3ccccc23)NC(=O)[C@H](C)NC(=O)[C@H](C)NC(=O)[C@H](CCC(N)=O)NC(=O)[C@H](Cc2ccc(O)cc2)NC1=O)C(C)C` [Helicon H330], for which the “ternary complex formation with MDM4” value at MDM4 is “did not occur”.
Regarding DPAWYACMDAARVCDRT, the “interaction data at Target Concentration 1000” value at VHL-ELOBC came to 0.
Turning to `CC(=O)N[C@@H](CC(=O)O)C(=O)N1CCC[C@H]1C(=O)N[C@@H](C)C(=O)N[C@H](C(=O)N[C@@H](Cc1c[nH]cn1)C(=O)N[C@@H](C)C(=O)N[C@H]1CSCC(=O)Nc2ccc(cc2)NC(=O)CSC[C@@H](C(=O)N[C@@H](CCC(=O)O)C(=O)N[C@@H](CC(C)C)C(=O)N[C@H](C(N)=O)C(C)C)NC(=O)[C@H](Cc2c[nH]cn2)NC(=O)[C@H](CC(C)C)NC(=O)[C@H](C)NC(=O)[C@H](C)NC(=O)[C@H](Cc2c[nH]c3ccccc23)NC(=O)[C@H](CCC(=O)O)NC1=O)[C@@H](C)O` [FP49252] (Ac-DPATHACEWAALHCELV-NH2; linker 7-14 via Phenylene(1,4-NHCOCH2)2), binding on beta-catenin was put at a Kd of 0.3 ± 0.1 µM.
On to `CC[C@H](C)[C@H](NC(=O)[C@@H]1CSCC(=O)Nc2ccc(cc2)NC(=O)CSC[C@H](NC(=O)[C@H](CC(=O)O)NC(=O)[C@H](CC(N)=O)NC(=O)[C@H](C)NC(=O)[C@H](C)NC(=O)[C@H](CO)NC(=O)[C@@H](NC(=O)[C@@H]2CCCN2C(C)=O)[C@@H](C)CC)C(=O)N[C@@H](Cc2ccccc2)C(=O)N[C@@H](CCCCN)C(=O)N[C@@H](C)C(=O)N[C@@H](C)C(=O)N[C@@H](Cc2c[nH]c3ccccc23)C(=O)N[C@@H](CCC(N)=O)C(=O)N1)C(=O)N[C@H](C(=O)N[C@@H](Cc1c[nH]c2ccccc12)C(=O)N[C@@H](CC(C)C)C(=O)N[C@@H](Cc1c[nH]cn1)C(=O)N[C@@H](CCC(N)=O)C(N)=O)[C@@H](C)CC` [Helicon H332], for which the “ternary complex formation with MDM4” value on MDM4 was “did not occur”. In addition, on β-catenin:MDM2 complex, the EC50 is 10 to 100 nM. The “ternary complex formation, MDM2 and β-catenin” value at MDM2 and β-catenin is “could promote ternary complex formation”. For the same compound, the “promotion” value at β-catenin:MDM4 complex was “not between MDM4 and β-catenin”.
Regarding `CC[C@H](C)[C@H](NC(=O)[C@H](C)NC(=O)[C@H](CCC(N)=O)NC(C)=O)C(=O)N[C@H]1CSCC(=O)Nc2ccc(cc2)NC(=O)CSC[C@@H](C(=O)N[C@@H](CC(C)C)C(=O)N[C@@H](C)C(=O)N[C@@H](CC(=O)O)C(=O)N[C@@H](CC(=O)O)C(=O)N[C@@H](Cc2c[nH]c3ccccc23)C(=O)N[C@H](C(N)=O)[C@@H](C)O)NC(=O)[C@H](CCSC)NC(=O)[C@H](Cc2c[nH]c3ccccc23)NC(=O)[C@H](C)NC(=O)[C@H](C)NC(=O)[C@H](CCC(N)=O)NC(=O)[C@H](Cc2ccccc2)NC1=O` [Helicon H331], the “promotion” value on β-catenin:MDM4 complex is “not between MDM4 and β-catenin”.
For DPAWWYCLDAAYDCDHT, the “interaction data at Target Concentration 1000” value at VHL-ELOBC is 0.
On to `CC[C@H](C)[C@H](NC(=O)[C@H](Cc1ccccc1)NC(=O)[C@H](Cc1ccc(O)cc1)NC(=O)[C@H](CC(C)C)NC(=O)[C@@H]1CSCC(=O)Nc2ccc(cc2)NC(=O)CSC[C@H](NC(=O)[C@H](CC(=O)O)NC(=O)[C@H](CCCNC(=N)N)NC(=O)[C@H](C)NC(=O)[C@H](CC(N)=O)NC(=O)[C@H](CCC(=O)O)NC(=O)[C@H](CO)NC(=O)[C@@H]2CCCN2C(C)=O)C(=O)N[C@@H](Cc2ccccc2)C(=O)N[C@@H](Cc2c[nH]c3ccccc23)C(=O)N[C@@H](C)C(=O)N[C@@H](C)C(=O)N[C@@H](Cc2c[nH]c3ccccc23)C(=O)N[C@@H](CC(=O)O)C(=O)N1)C(=O)N[C@@H](Cc1ccc(O)cc1)C(=O)N[C@@H](CCC(N)=O)C(N)=O` [Helicon H333], for which the “promotion” value at β-catenin:MDM4 complex was “not between MDM4 and β-catenin”.
`CC(=O)N[C@@H](CC(=O)O)C(=O)N1CCC[C@H]1C(=O)N[C@@H](C)C(=O)N[C@H](C(=O)N[C@@H](C)C(=O)N[C@@H](CCCNC(=N)N)C(=O)N[C@H]1CSCC(=O)Nc2ccc(cc2)NC(=O)CSC[C@@H](C(=O)N[C@@H](CCC(=O)O)C(=O)N[C@@H](CC(C)C)C(=O)N[C@H](C(N)=O)C(C)C)NC(=O)[C@H](Cc2c[nH]cn2)NC(=O)[C@H](CC(C)C)NC(=O)[C@H](C)NC(=O)[C@H](C)NC(=O)[C@H](Cc2c[nH]c3ccccc23)NC(=O)[C@H](CCC(=O)O)NC1=O)[C@@H](C)O` [FP49251] (Ac-DPATARCEWAALHCELV-NH2; linker 7-14 via Phenylene(1,4-NHCOCH2)2) displayed a Kd at beta-catenin of 0.4 ± 0.05 µM.
In the case of `CC(=O)N[C@@H](CC(=O)O)C(=O)N1CCC[C@H]1C(=O)N[C@@H](C)C(=O)N[C@@H](C)C(=O)N[C@@H](Cc1c[nH]cn1)C(=O)N[C@@H](CCCNC(=N)N)C(=O)N[C@H]1CSCC(=O)Nc2ccc(cc2)NC(=O)CSC[C@@H](C(=O)N[C@@H](CCC(=O)O)C(=O)N[C@@H](CC(C)C)C(=O)N[C@H](C(N)=O)C(C)C)NC(=O)[C@H](Cc2c[nH]cn2)NC(=O)[C@H](CC(C)C)NC(=O)[C@H](C)NC(=O)[C@H](C)NC(=O)[C@H](Cc2c[nH]c3ccccc23)NC(=O)[C@H](CCC(=O)O)NC1=O` [FP49250] (Ac-DPAAHRCEWAALHCELV-NH2; linker 7-14 via Phenylene(1,4-NHCOCH2)2), binding on beta-catenin was characterised by a dissociation constant (Kd) of 1.4 ± 0.55 µM.

These data come from patent US20240376151A1, “STAPLED PEPTIDES AND METHODS THEREOF” (FOG PHARMACEUTICALS, INC., priority 2022, published 2024).
